Read-outs that look alike come from different tables or passages of the source.

The values that follow come from US5763597A, “Orally active adenosine kinase inhibitors” (priority 1996, dated 1998).

Series [1] has as its system rat cardiomyocytes. The settings on record: cited from earlier work.
Series [2] concerns isolated guinea pig hearts. The conditions noted are these: without ADA inhibition; cited from earlier work.
The conditions of series [3]: background; hence potentially short half life; cited from earlier work.
In series [4] the test system is rat brain slices. The conditions noted are these: cited from earlier work.
Series [5] has as its system mice. The settings on record: cited from earlier work; for general flaccidity and spontaneous locomotor activity: interpreted to be skeletal muscle relaxation.
In series [6] the test system is guinea pig brain slices. The settings on record: cited from earlier work.
For series [7] the following is noted: background; cited from earlier work.
For series [8], the system named is dog hearts. The conditions noted are these: cited from earlier work.
For series [9], the system named is isolated rat hearts. The settings on record: compound alone, cited from earlier work.
Series [10] concerns hot plate pain response in male SA rats. Put plainly: Analgesic activity, hot plate. It counts as in vivo. The settings on record: rat, po. An excerpt:
Ther., 250:3, 915-922 (1989). See also, Life Sciences 51:171-76 (1992). These models measure pain avoidance and tolerance in response to a regulated stimulus, and compare the response of animals before and after they are given test compound.

Series [11] has as its target adenosine kinase. Put plainly: AK inhibition (adenosine kinase activity, [U-14C] adenosine). It is filed as biochemical, partially purified pig heart or recombinant human. The conditions noted are these: 0.5 μM adenosine, 1 mM ATP, pH 7.0, 20 min; pig heart or recombinant human enzyme. Here is the method: Adenosine kinase activity was measured essentially as described by Yamada et al. Biochim. Biophys. Acta 660, 3643 (1988) with a few minor modifications. Assay mixtures contained 50 mM TRIS-maleate buffer, pH 7.0, 0.1% BSA, 1 mM ATP 1 mM MgCl2, 0.5 μM [U-^14 C] adenosine (400-600 mCi/mmol) and varying duplicate concentrations of inhibitor. […] The amount of ^14 C-AMP was quantified by scintillation counting.

Series [12] concerns carrageenan paw swelling in rats. Put plainly: Anti-inflammatory activity, carrageenan paw swelling. It counts as in vivo. The settings on record: rat, swelling after 3 hours; for Carrageenan Paw (% inh) ip: 10 mg/kg ip, 30 min before carrageenan; for Carrageenan Paw (% inh) po: 10 mg/kg po, 1 h before carrageenan. A general note: The carrageenan paw model is a standard test of acute inflammation.

The test system of series [13] is formalin-induced pain in rats. Kind of series: Analgesic activity, formalin paw model. It counts as in vivo. The conditions noted are these: rat, oral, 20 mg/kg; for % Inhibition Phase 1 Composite score: Phase 1 (1.7-5 min post-formalin); for % Inhibition Phase 2 Composite score: Phase 2 (10.3-30 min post-formalin); for % Inhibition Phase 2 Licking/biting: Phase 2, licking/biting incidences. An excerpt:
Pharmacol. Exper. Ther., 250:3, 915-922 (1989). See also, Life Sciences 51:171-76 (1992). These models measure pain avoidance and tolerance in response to a regulated stimulus, and compare the response of animals before and after they are given test compound. Formalin Paw Assay In this assay, injection of formalin, an irritant, into the hindpaw of rats typically evokes a biphasic response of pain-related behaviors. […] Phase I behavior is thought to be a direct effect of the irritant on nociceptors at the injection site while phase 2 behavior is thought to include a hyperalgesic component mediated by sensitization of neuronal elements within the spinal cord. Studies from other laboratories have found the first portion of Phase 2 (sometimes referred to as Phase 2a) to be most responsive to pharmacological manipulation. Rats (male, Simonsen) weighing between 100-200 g, are used in the present experiments. For screening purposes drugs are administered orally 90 min prior to initiation of formalin test. […] The rat is then immediately placed in a separate plexiglass box and scoring (described below) of the animal's behavior is begun at 1.7 min after formalin injection. […] This sequence is repeated over a 30 min period. […] Scores are continuously recorded directly onto an Excel spreadsheet.

Series [14] in a line: Oral bioavailability in dogs. It is filed as in vivo, female beagle dogs. The settings on record: dog, 10 mg/kg oral versus iv, dose-corrected AUC to infinity, PEG-400. Here is the method: Oral bioavailability was determined by comparing the dose corrected areas under the plasma-concentration time curve (AUC) to infinity for the each tested compound, given orally and intravenously in dogs. […] One dog received this solution at an infusion rate of 0.1 mL/min for 20 minutes. The other dog received a 0.2 mL/in infusion for 10 minutes. […] The plasma was separated within 10 minutes of blood collection and was stored frozen. The plasma concentration of compound was then determined for these IV infusions. […] The plasma concentration of compound was determined for this oral administration. The samples were assayed for intact adenosine kinase inhibitor by high performance liquid chromatography (HPLC). An internal standard was added to each test sample and standard sample. Each was then extracted with 10 volumes of 1% v/v dimethylsulfoxide in acetonitrile. […] The dried residue was reconstituted in mobile phase and the contents were analyzed for the adenosine kinase inhibitor (AKI) on HPLC. […] Pharmacokinetic parameters were calculated from the plasma concentration vs. time data, using standard non-compartmental methods. […] (1983).

Series [15] has as its system maximal electroshock seizures (hind limb tonic extension) in male SA rats. Put plainly: Anticonvulsant activity, maximal electroshock (MES) model. It counts as in vivo. The conditions noted are these: rat. In general terms: In the maximal electroshock model the usual endpoint is tonic extension of the hind limbs.
Where [16] appears, read: po, fasted overnight, ">>" (written >) = no activity at stated dose, read-out: Anticonvulsant ED50 (MES) po.
The mark [17] stands for this setting: ip, ">5" = HTE inhibited in fewer than 50% of animals at 5 mg/kg screen, ">>" (written >) = no activity, "<" = maximal activity at stated dose, read-out: Anticonvulsant ED50 (MES) ip.

For `OC[C@H]1O[C@@H](n2cnc3c2N=CNC[C@H]3O)C[C@@H]1O` [2'-deoxycoformycin], the “effect on adenosine release from the cells” value in series [1] (adenosine deaminase inhibition) is “no effect on adenosine release from the cells”.
As to `NC[C@H]1O[C@@H](n2cnc3c(N)ncnc32)[C@H](O)[C@@H]1O` [5'-amino-5'-deoxyadenosine], in series [2], the “adenosine release in the absence of ADA inhibition” value is given as “These effects were not apparent in the absence of ADA inhibition”. The susceptibility to deamination entry in series [3] is “susceptibility of 5'-amino-5'-deoxyadenosine to deamination”. The “increase in adenosine release” value in [1] (together with ADA inhibition) is recorded as 6 fold.
Take `C[C@H]1O[C@@H](n2cc(I)c3c(N)ncnc32)[C@H](O)[C@@H]1O` [5'-deoxy-5-iodotubercidin]: the “adenosine uptake, rat brain slices” value in [4] is on record as “adenosine uptake was reportedly inhibited”. Also, in series [5], the “body temperature (hypothermia)” value is “hypothermia”; the “general flaccidity and spontaneous locomotor activity” value is “pronounced general flaccidity and much-reduced spontaneous locomotor activity”. Besides, in series [6], the “adenosine uptake, guinea pig brain slices” value is “adenosine uptake was reportedly inhibited”.
As to `Nc1ncnc2c1c(I)cn2[C@@H]1O[C@H](CO)[C@@H](O)[C@H]1O` [5-iodotubercidin], the “adenosine uptake, rat brain slices” value in series [4] is on record as “adenosine uptake was reportedly inhibited”. In addition, the cytotoxicity entry in series [7] was “cytotoxicity of 5-iodotubercidin”. For the same compound, in series [5], the “body temperature (hypothermia)” value is listed as “hypothermia”; the “general flaccidity and spontaneous locomotor activity” value was “pronounced general flaccidity and much-reduced spontaneous locomotor activity”. Moreover, the “adenosine uptake, guinea pig brain slices” value in series [6] is given as “adenosine uptake was reportedly inhibited”. Also, the “effects in dog heart ischemia and reperfusion” value in [8] was “inconsistent effects”. The “perfusate adenosine concentration, hypoxic, anoxic or ischemic” value in series [9] (hypoxic, anoxic or ischemic conditions) was “no increase in perfusate adenosine concentration”. Besides, in series [9] (normoxic conditions), the “perfusate adenosine concentration, normoxic” value is reported as “no increase in perfusate adenosine concentration”.
As to `C[C@H]1O[C@@H](n2cc(-c3ccccc3)c3c(Nc4ccc(F)cc4)ncnc32)[C@H](O)[C@@H]1O` [compound 1], the ED50 – broadly, the dose that gives a 50% effect, or the effect in half of the subjects – in series [10] turned out to be 16.6 mg/kg. The IC50 (commonly the concentration that gives 50% inhibition) in [11] worked out at 11 nM. For the same compound, in series [12], the “Carrageenan Paw (% inh) ip” value came to 3.5 % inh and the “Carrageenan Paw (% inh) po” value turned out to be 0.2 % inh. Besides, in series [13], the “% Inhibition Phase 1 Composite score” value is given as 7.4%, the “% Inhibition Phase 2 Composite score” value came out at 33.3% and the “% Inhibition Phase 2 Licking/biting” value is 59%.
For `C[C@H]1O[C@@H](n2cc(-c3ccc(F)cc3)c3c(Nc4ccc(F)cc4)ncnc32)[C@H](O)[C@@H]1O` [compound 2], in series [14], the “% Oral Availability” value was 47%.
With `CCOc1ccc(Nc2ncnc3c2c(-c2ccccc2)cn3[C@@H]2O[C@H](C)[C@@H](O)[C@H]2O)cc1` [compound 28], the half-maximal inhibitory concentration (IC50) in series [11] was determined as 4 nM. Besides, in [12], the “Carrageenan Paw (% inh) ip” value is 22.2 % inh and the “Carrageenan Paw (% inh) po” value was found to be 31.0 % inh. Besides, in series [13], the “% Inhibition Phase 1 Composite score” value turned out to be 22.5%, the “% Inhibition Phase 2 Composite score” value was 46.8% and the “% Inhibition Phase 2 Licking/biting” value was found to be 83%.
As for `CC(=O)Nc1ccc(Nc2ncnc3c2c(-c2ccccc2)cn3[C@@H]2O[C@H](C)[C@@H](O)[C@H]2O)cc1` [compound 32], in series [11], the IC50 amounted to 0.5 nM. Besides, the ED50 in series [15] (setting [16]) is above 10 mg/kg. In addition, in series [13], the “% Inhibition Phase 1 Composite score” value is 0%, the “% Inhibition Phase 2 Composite score” value is given as 30.9% and the “% Inhibition Phase 2 Licking/biting” value came out at 56%.
For `C[C@H]1O[C@@H](n2cc(-c3ccccc3)c3c(Nc4ccc(S(N)(=O)=O)cc4)ncnc32)[C@H](O)[C@@H]1O` [compound 34], the half-inhibitory concentration (IC50) in series [11] was 5 nM. The median effective dose (ED50) in [15] (setting [16]) is above 10 mg/kg. Further, in series [12], the “Carrageenan Paw (% inh) ip” value came out at 1.7 % inh and the “Carrageenan Paw (% inh) po” value stood at 0 % inh.
In the case of `C[C@H]1O[C@@H](n2cc(-c3ccccc3)c3c(Nc4ccc(N)cc4)ncnc32)[C@H](O)[C@@H]1O` [compound 43], in series [11], the half-inhibitory concentration (IC50) was 3 nM. In [15] (setting [17]), the median effective dose (ED50) was determined as 5 mg/kg.
Turning to `[N-]=[N+]=NC[C@H]1O[C@@H](n2nc(-c3cccs3)c3c(Nc4ccccc4)ncnc32)[C@H](O)[C@@H]1O` [compound 97], the concentration for half-maximal inhibition (IC50) in series [11] was found to be 10 nM. The “Anticonvulsant ED50 (MES) ip” value in series [15] (ip, ">5" = HTE inhibited in fewer than 50% of animals at 5 mg/kg screen, ">>" (written >) = no activity, "<" = maximal activity at stated dose) is recorded as above 5 mg/kg.
With `CCOC(=O)Cc1ccc(Nc2ncnc3c2c(-c2ccccc2)cn3[C@@H]2O[C@H](C)[C@@H](O)[C@H]2O)cc1` [compound 127], the concentration for half-maximal inhibition (IC50) in series [11] is 2 nM. Moreover, the ED50 in [15] (setting [17]) was found to be 5 mg/kg. Also, in [12], the “Carrageenan Paw (% inh) ip” value is 5.4 % inh and the “Carrageenan Paw (% inh) po” value is reported as 2.9 % inh.
The like results for `C[C@H]1O[C@@H](n2cc(-c3ccc(CO)cc3)c3c(Nc4ccccc4)ncnc32)[C@H](O)[C@@H]1O` [compound 130] were, in that order, 6 nM, above 5 mg/kg, 0.0 % inh and 3.9 % inh.
